Where two headings read alike, the source gives them in different places.
Experiment: Plasma pharmacokinetics after single intravenous or intragastric dose
Assay type: in vivo, male ICR mice
Details: for Cmax / AUC / AUC(0-t) / MRT / Tmax / bioavailability / clearance / Vd / half-life: ICR, mouse; for AUC: read-out: AUCinfininty; for bioavailability: intragastric 20 mg/kg vs intravenous 5 mg/kg, read-out: Absolute bioavailability; for Vd: read-out: Vz; for half-life: read-out: t1/2 elimination (converted)
Procedure: PK studies were performed using both intravenous (IV) and intragastric (IG) administration. For each time point to be acquired, three male ICR mice per time-point, aged seven weeks, were dosed at either PQ or TQ at 5 mg/kg (IV) or 20 mg/kg (IG). Drug vehicle for IV studies was 0.9% saline solution, and the formulated drugs were administered in a volume of 100 μL/20 g of body weight. For IG dosing, the drug vehicle was 0.5% HECT, administered at 100 μL/20 g. At each time point, plasma and liver samples were collected. Whole blood was collected by cardiac puncture. […] Following the separation of appropriate aliquots, plasma was obtained from the whole blood via centrifugation. All liquid and tissue samples were immediately preserved on dry ice and lately stored at -80°C until analytical work was performed.
Sample was prepared by adding twice the normal volume of acetonitrile containing indomethacin internal standard (IS). The samples were mixed for 1 minute, centrifugation for 5 minutes, and the supernatant was transferred to an autosampler injection vial prior to separation by LC/MS/MS. Standard curve and quality control (QC) samples were generated by spiking interference free mouse plasma samples with known amounts of PQ, TQ and IS. Standard curve, QC, and assay samples were prepared and then 40 μL aliquots were injected into the LC/MS/MS system for chromatographic separation and subsequent mass spectrometric detection.
Chromatography was performed using a Surveyor pump (Thermo Scientific, Waltham, MA) with Waters XTerra MS C18 50 mm × 2.1 mm id, 3.5 μm particle size columns (Waters Corp., Milford, MA). Mobile phase consisted of a water/0.1% formic acid (Solvent A)/acetonitrile/0.1% formic acid (Solvent B) gradient. […] Flow rate was 300 μL/min. Samples were injected using an HTC PAL autosampler (LEAP Technologies, Carrboro, NC). Tandem mass spectrometry was performed using a TSQ Quantum AM (Thermo Scientific).
Drug concentrations were generated for each sample taken from animals dosed with both test drugs. A measured plasma and liver drug concentration vs. time curve was produced, in graphic and tabular form, for each subject on both linear/linear and log/linear scales, for the parent compound. Mean plasma drug concentration vs. time curves were also prepared separately. For the determination of initial approach to PK parameters of TQ and PQ in plasma and liver tissues after systemic application, a non-compartmental analysis was performed using Phoenix (version 6.1; Pharsight Corp., Mountain View, CA). Maximum plasma and liver concentration (Cmax), and time to maximum concentration (tmax) of TQ and PQ were obtained from the plasma and liver drug concentration-time curves. The elimination half-life (t1/2) was calculated from In2/kel, which is the elimination rate constant calculated from the log concentration-time plot. The area under the curve (AUC) and the area under the first moment curve (AUMC) were determined by the linear trapezoidal rule with extrapolation to infinity based on the concentration of the last time point divided by the terminal rate constant. Mean clearance rate (CL) was determined by dividing the dose by the AUCinf for intravenous injection for plasma samples. Absolute bioavailability was calculated by taking the dose-corrected area under the curve (AUC) from non-intravenous dosing divided by the AUC derived from intravenous dosing. Mean residence time (MRT) was determined by dividing the area under the first moment curve (AUMC) by AUC. The volume of the central compartment (Vz) and volume of the tissue compartment (Vz/F) were calculated as the product of CL and MRT.

[1] = male, in vivo, po, intragastric 20 mg/kg, plasma
[2] = male, in vivo, intravenous 5 mg/kg, plasma
[3] = male, po, intragastric 20 mg/kg, plasma
[4] = male, intravenous 5 mg/kg, plasma

SMILES: COc1cc(NC(C)CCCN)c2ncccc2c1 (centres unmarked) [Primaquine, primaquine]
- Cmax (in vivo, intravenous 5 mg/kg, plasma, male mice): 1210 ± 210 ng/mL
- Cl (intragastric 20 mg/kg, plasma): 965.7 ± 342 mL/min/kg
- Vz (intragastric 20 mg/kg, plasma): 154.66 ± 61.83 L/kg
- AUCinfininty (intravenous 5 mg/kg, plasma, 5 mg/kg): 1260 ± 140 ng·h/mL
- AUC (male, in vivo, iv, 5 mg/kg, intravenous 5 mg/kg, plasma): 1200 ng·h/mL
- AUC (male, in vivo, po, 20 mg/kg, intragastric 20 mg/kg, plasma): 1310 ± 410 ng·h/mL
- AUC(0-t) [1]: 1260 ± 400 ng·h/mL
- Cmax [1]: 530 ± 70 ng/mL
- MRT [1]: 2.28 ± 0.1 h
- Tmax (male, in vivo, po, intragastric 20 mg/kg, plasma, read-out: Tmax): 0.5 h
- Tmax (male, in vivo, absorbed from the gastrointestinal tract, mice, read-out: time to peak plasma levels): ≤ 0.0833 h
- bioavailability (male, in vivo, plasma): 28.3 ± 6.93%
- AUC(0-t) [2]: 1200 ± 130 ng·h/mL
- MRT [2]: 0.68 ± 0.02 h
- clearance [2]: 69.8 mL/min/kg
- Tmax (male, in vivo, intravenous 5 mg/kg, plasma, read-out: Tmax): 0.08 h
- Vd [2]: 3.85 ± 0.71 L/kg

SMILES: COc1cc(C)c2c(Oc3cccc(C(F)(F)F)c3)c(OC)cc(NC(C)CCCN)c2n1 (centres unmarked) [Tafenoquine, tafenoquine]
- Cmax (intravenous 5 mg/kg, plasma, male mice): 660 ± 130 ng/mL
- Cl (intragastric 20 mg/kg, plasma): 2.5 ± 0.5 mL/min/kg
- Vz (intragastric 20 mg/kg, plasma): 10.60 ± 1.22 L/kg
- bioavailability (male, oral, plasma): 101 ± 37.5%
- AUC(0-t) [3]: 138000 ± 24400 ng·h/mL
- Cmax [3]: 2040 ± 590 ng/mL
- MRT [3]: 62.1 ± 2.3 h
- AUC [3]: 139000 ± 24900 ng·h/mL
- Tmax (male, po, intragastric 20 mg/kg, plasma, read-out: Tmax): 11.3 ± 5.37 h
- half-life [3]: 50.9 ± 4.23 h
- AUC(0-t) [4]: 29600 ± 6740 ng·h/mL
- MRT [4]: 55.9 ± 3.86 h
- clearance [4]: 2.83 mL/min/kg
- AUC [4]: 30100 ± 6650 ng·h/mL
- Tmax (male, intravenous 5 mg/kg, plasma, read-out: Tmax): 1.36 ± 1.11 h
- Vd [4]: 16.8 ± 6.44 L/kg
- half-life [4]: 66.3 ± 10.3 h
- absolute bioavailability of oral TQ, fold greater than oral PQ (oral): 3.5 fold
- clearance as % of the hepatic blood flow (oral CL 0.15 L/hours/kg): 3%
- AUCinf of oral TQ, fold higher than oral PQ (oral, plasma): 94 fold
- Cmax of oral TQ, fold higher than oral PQ (oral, plasma): approximately 4 fold
- elimination clearance of oral TQ, fold slower than oral PQ (oral, plasma): 370 fold
- absorption rate of oral TQ, fold slower than PQ (oral, plasma, mice): 22.7 fold
- duration of quantifiable concentrations (single 20 mg/kg dose): more than two weeks

Reference: PMC3989846 (Malaria Journal, 2014)
